Measured values from US9737535B2, “Methods for treating cancer using TOR kinase inhibitor combination therapy comprising administering substituted pyrazino[2,3-b]pyrazines” (Signal Pharmaceuticals, LLC, priority 2014, dated 2017).

Assays:
Assay in all cases: Anti-proliferation assay (ATPLite), Chalice synergy score
Assay type in all cases: cell-based
[1] = test system: BT-20; parameters: scale not given here; details: Compound 1 in combination with the named second active agent, 72 h, mean of n = 3 experiments in triplicate
Description: (§1) Cells were thawed from a liquid nitrogen preserved state.
(§2) The calculation for synergy score is provided below.
(§3) If T≧V0:100*[1−(T−V0)/(V−V0)]

[2] = test system: HCC-1500; parameters: scale not given here; details: Compound 1 in combination with the named second active agent, 72 h, mean of n = 3 experiments in triplicate
Description: as §1, §2, §3

[3] = test system: HCC-1187; parameters: scale not given here; details: Compound 1 in combination with the named second active agent, 72 h, mean of n = 3 experiments in triplicate
Description: as §1, §2, §3

[4] = test system: HCC-1428; details: Compound 1 in combination with the named second active agent, 72 h, mean of n = 3 experiments in triplicate
Description: as §1, §2, §3

[5] = test system: HCC70; details: Compound 1 in combination with second active agent; HCC-70; mean self-cross + 2σ threshold 3.45
Description: as §1, §2, §3

[6] = test system: BT-549; details: Compound 1 in combination with the named second active agent, 72 h, mean of n = 3 experiments in triplicate
Description: as §1, §2, §3

[7] = test system: MCF7; details: Compound 1 in combination with second active agent, mean self-cross + 2σ threshold 3.07
Description: as §1, §2, §3

[8] = test system: Hs-578-T; details: Compound 1 in combination with second active agent, mean self-cross + 2σ threshold 4.09
Description: as §1, §2, §3

[9] = test system: MDA-MB-468; details: Compound 1 in combination with second active agent, mean self-cross + 2σ threshold 4.66
Description: as §1, §2, §3

[10] = test system: HCC-1937; details: Compound 1 in combination with the named second active agent, 72 h, mean of n = 3 experiments in triplicate
Description: as §1, §2, §3

[11] = test system: BT-474; details: Compound 1 in combination with the named second active agent, 72 h, mean of n = 3 experiments in triplicate
Description: as §1, §2, §3

[12] = test system: MDA-MB-231; details: Compound 1 in combination with second active agent, mean self-cross + 2σ threshold 2.61
Description: as §1, §2, §3

[13] = test system: MDA-MB-157; details: Compound 1 in combination with second active agent, mean self-cross + 2σ threshold 4.68
Description: as §1, §2, §3

[14] = test system: HCC-1806; details: Compound 1 in combination with the named second active agent, 72 h, mean of n = 3 experiments in triplicate
Description: as §1, §2, §3

[15] = test system: MDA-MB-436; details: Compound 1 in combination with second active agent, mean self-cross + 2σ threshold 1.91
Description: as §1, §2, §3

SMILES	Synergy score [1]	Synergy score [2]	Synergy score [3]	Synergy score [4]	Synergy score [5]	Synergy score [6]	Synergy score [7]	Synergy score [8]	Synergy score [9]	Synergy score [10]	Synergy score [11]	Synergy score [12]	Synergy score [13]	Synergy score [14]	Synergy score [15]
COc1ccc(Cl)c(Nc2nc3ccccc3nc2NS(=O)(=O)c2cccc(NC(=O)C(C)(C)N)c2)c1 [XL147]	0.23	2.87	5.02	0.43	0.09	0.18	0.18	0.77	0.34	0.64	1.81	0.57	1.99	1.06	0.67
CN(C)CC[C@H](CSc1ccccc1)Nc1ccc(S(=O)(=O)NC(=O)c2ccc(N3CCN(Cc4ccccc4-c4ccc(Cl)cc4)CC3)cc2)cc1[N+](=O)[O-] [ABT-737]	7.28	4.23	8.77	10.60	9.10	6.10	6.97	10.00	8.29	5.46	4.14	10.00	4.46	6.15	0.56
Clc1ccc(C2(c3ccc(-c4cn[nH]c4)cc3)CCNCC2)cc1 [AT7867]	3.07	2.00	4.19	1.42	4.28	4.50	1.39	5.24	3.60	1.72	1.83	3.58	3.19	2.04	1.95
CS(=O)(=O)N1CCN(Cc2cc3nc(-c4cccc5[nH]ncc45)nc(N4CCOCC4)c3s2)CC1 [GDC-0941]	6.56	1.45	5.18	1.90	6.42	4.39	5.22	7.23	3.21	4.39	5.04	1.76	5.60	6.16	1.25
C=CC(=O)Nc1ccc2ncnc(Nc3ccc(OCc4cccc(F)c4)c(Cl)c3)c2c1 [AST-1306]	7.60	0.96	2.17	2.69	7.50	4.88	4.34	4.43	5.65	6.39	4.02	4.37	3.02	5.59	2.08
O=C(Nc1cc(C(F)(F)F)cc(C(F)(F)F)c1)c1cc(Cl)ccc1O [IMD-0354]	1.85	1.42	1.86	0.51	0.88	2.68	2.88	3.35	3.80	6.42	1.77	6.14	4.80	7.45	3.94
COc1ccc(-c2ccc3c(N4CCOC[C@@H]4C)nc(N4CCOC[C@@H]4C)nc3n2)cc1CO [AZD8055]	0.70	2.98	2.00	1.79	1.13	0.98	1.22	1.55	1.69	2.24	1.53	0.61	1.04	1.47	0.15
OCCn1cc(-c2cnc3nnn(Cc4ccc5ncccc5c4)c3n2)cn1 [PF-04217903]	0.05	0.11	0.17	0.31	0.33	0.04	0.20	1.12	1.09	0.44	0.57	0.53	0.75	0.39	0.08
COCCn1c2c([n+](Cc3cnccn3)c1C)C(=O)c1ccccc1C2=O [YM155]	2.67	2.81	4.94	1.16	4.01	6.80	1.77	3.36	0.24	5.70	4.04	2.54	5.42	5.52	2.79
OCCn1cc(-c2ccc3c(c2)CC/C3=N\O)c(-c2ccncc2)n1 [GDC-0879]	0.00	0.91	0.85	0.13	0.43	0.08	0.11	0.75	0.44	0.29	0.46	0.54	0.69	0.47	0.13
COc1cc2c(NC3CCN(C4CCCCC4)CC3)nc(N3CCCN(C(C)C)CC3)nc2cc1OCCCN1CCCCC1 [UNC 0646]	2.59	1.11	0.22	1.66	2.03	0.91	3.27	2.20	2.08	0.54	1.13	0.49	1.05	0.53	0.66
CO[C@H]1/C=C\C=C(/C)C(=O)NC2=CC(=O)C(NCCN(C)C)=C(C[C@@H](C)C[C@H](OC)[C@H](O)[C@@H](C)/C=C(\C)[C@@H]1OC(N)=O)C2=O [Compound 17-DMAG]	5.94	0.99	0.33	2.46	11.10	0.01	0.13	0.45	7.72	1.70	2.24	1.00	6.09	1.40	0.61
